Laboratory results taken from patent US4079139A, “Flavone derivatives” (priority 1974, dated 1978).
Read-outs that look alike come from different tables or passages of the source.

Columns and labels:
[1] = system: respiratory and cardiocirculatory activity; details: rabbit; for convulsive phenomena: in vivo, iv
[2] = system: Mouse; details: cited from earlier work
[3] = Convulsivant effect on mouse; details: mouse, in vivo, po
[4] = system: mouse; experiment: Convulsivant effect on mouse; details: for stimulant action on the CNS indicated by the ratio LD50/CD50: mouse, in vivo
[5] = system: toxicity of sodium Pentobarbital; experiment: "Life-saving" effect: influence on the toxicity of sodium Pentobarbital; details: for PR (ratio between the LD50 of Pentobarbital with and without pre-treatment with the stimulant): mouse, in vivo
[6] = Acute toxicity in rat; parameters: species or system rats Sprague-Dauley; details: in vivo, read-out: LD50 and F.L.
Procedure: The test has been performed on Swiss mice of the weight of 20-22 g and on rats Sprague-Dauley of the weight of 120-130 g, subdivided in groups comprising 5 male and 5 female animals. The new drugs have been administered to animals hungry since 15-18 hours, both by oral and i.p.route. The LD50 values have been determined according to Litchfield and Wilcoxon (J.Pharmacol.96,99,1949). The results are reported in the following Table 1, in comparison with LD50 value for Dimefline.

[7] = Stimulating activity on the CNS (analeptic activity, ED50); type: in vivo
[8] = system: respiratory depression induced by morphine; details: rabbit
[9] = system: rat; experiment: Chronic toxicity in rat
[10] = system: Mouse; experiment: Acute toxicity in mouse; details: in words
[11] = Acute toxicity in mouse; details: mouse, in vivo
[12] = system: mouse; details: in vivo
[13] = rat, 5 and 10 mg/kg, 5 times/week over 12 weeks

In the case of `COc1ccc2c(=O)c(C)c(-c3ccccc3)oc2c1CN(C)C` [Dimefline], the convulsive phenomena [1] is listed as “several cases showing convulsive phenomena”, the “LD50 and F.L.” value ([2]; i.p., Setnikar, J.Pharmacol.128, 176, 1960) is listed as 4.8 (4.6-5.0) mg/KG and the “LD50 and F.L.” value ([2]; in vivo, po) is listed as 11.9 (10.3-13.8) mg/KG. For the same molecule, the “LD50 and L.F.” value ([2]; in vivo) was 11,9 (10,3-13,8) mg/Kg, the TD50 [3] was 8.9 mg/kg and the “start of the convulsivant effect” value ([4]; in comparison with PV1, in words) was “starts at by far lower doses”. For the same molecule, the “stimulant action on the CNS indicated by the ratio LD50/CD50” value [4] was “equivalent for the two drugs” and the “PR (ratio between the LD50 of Pentobarbital with and without pre-treatment with the stimulant)” value [5] was 1,27.

`COc1ccc2c(=O)c(-c3ccccc3)c(-c3ccc(C)cc3)oc2c1CN(C)C` [PV1] showed an LD50 ([6]; ip) of 22.5 mg/kg, an LD50 ([6]; po, os) of 76.4 mg/kg and an ED50 [7] of 5 mg/kg. For the same molecule, the “respiratory amplitude and frequency” value ([1]; i.v. 1.25 - 2.5-5 mg/kg, without morphine) was “constantly reduced the gradual diminution of the respiratory amplitude and frequency”, the convulsive phenomena [1] was “no convulsive phenomenon was detected” and the “antagonism of the intermittent breath of Sheyne-Stoches” value ([8]; i.v. 1.25 mg/kg, after morphine 10 mg/kg) was “uneffective”. The “reinstatement of normal respiratory amplitude and frequency” value ([8]; i.v. 2.5 mg/kg, after morphine 10 mg/kg, repeated administration needed) was “effective to reinstate normal values of respiratory amplitude and frequency, but needed repeated administration”, the “reinstatement of normal respiratory amplitude and frequency” value ([8]; i.v. 5 mg/kg, after morphine 10 mg/kg, only one administration) was “quite effective” and the cardiocirculatory conditions ([8]; in vivo, iv) was “not remarkably affected”. For the same molecule, the HB ([9]; 5 mg/Kg, 12 weeks) was 14,88 ± 0,36%, the Hemazies ([9]; 5 mg/Kg, 12 weeks) was 7,38 ± 0,21 10^6 /mm^3 and the Leucocytes ([9]; 5 mg/Kg, 12 weeks) was 17,04 ± 1,36 10^3 /mm^3. The “Leucocytic formula: bas” value ([9]; 5 mg/Kg, 12 weeks) was 0, the “Leucocytic formula: eosin” value ([9]; 5 mg/Kg, 12 weeks) was 0,9 and the “Leucocytic formula: linf.” value ([9]; 5 mg/Kg, 12 weeks) was 77,6. The “Leucocytic formula: monoc.” value ([9]; 5 mg/Kg, 12 weeks) was 7,9, the “Leucocytic formula: neutr.” value ([9]; 5 mg/Kg, 12 weeks) was 13,6 and the “analysis of urine: Hemoglobin” value ([9]; 5 mg/kg) was 1(+). The “analysis of urine: Proteins” value ([9]; 5 mg/kg) was 6(+), the “analysis of urine: Residue” value ([9]; 5 mg/kg) was “normal” and the “relative average weight: Brain” value ([9]; 5 mg/kg) was 579,6 ± 24,5 mg/100 g of body weight. The “relative average weight: Heart” value ([9]; 5 mg/kg) was 289,9 ± 11,2 mg/100 g of body weight, the “relative average weight: Liver” value ([9]; 5 mg/kg) was 3012 mg/100 g of body weight and the “relative average weight: Loins” value ([9]; 5 mg/kg) was 658,5 ± 26,4 mg/100 g of body weight. For the same molecule, the “relative average weight: Spleen” value ([9]; 5 mg/kg) was 304,2 ± 16,6 mg/100 g of body weight, the Azotemia ([9]; 5 mg/kg, 12 weeks) was 15,7 ± 0,5 mg/100 ml and the Glycemia ([9]; 5 mg/kg, 12 weeks) was 87,8 ± 3,9 mg/100 ml. For the same molecule, the SGOT ([9]; 5 mg/kg, 12 weeks) was 12,9 ± 0,8 mU/ml, the SGPT ([9]; 5 mg/kg, 12 weeks) was 12,1 ± 0,6 mU/ml and the HB ([9]; 10 mg/Kg, 12 weeks) was 15,02 ± 0,42%. For the same molecule, the Hemazies ([9]; 10 mg/Kg, 12 weeks) was 7,40 ± 0,20 10^6 /mm^3, the Leucocytes ([9]; 10 mg/Kg, 12 weeks) was 16,70 ± 1,70 10^3 /mm^3 and the “Leucocytic formula: bas” value ([9]; 10 mg/Kg, 12 weeks) was 0. For the same molecule, the “Leucocytic formula: eosin” value ([9]; 10 mg/Kg, 12 weeks) was 0,7, the “Leucocytic formula: linf.” value ([9]; 10 mg/Kg, 12 weeks) was 77,8 and the “Leucocytic formula: monoc.” value ([9]; 10 mg/Kg, 12 weeks) was 9,4. For the same molecule, the “Leucocytic formula: neutr.” value ([9]; 10 mg/Kg, 12 weeks) was 12,1, the “analysis of urine: Hemoglobin” value ([9]; 10 mg/kg) was 2(+) and the “analysis of urine: Residue” value ([9]; 10 mg/kg) was “normal”. The “relative average weight: Brain” value ([9]; 10 mg/kg) was 583,7 ± 19,8 mg/100 g of body weight, the “relative average weight: Heart” value ([9]; 10 mg/kg) was 288,8 ± 11,3 mg/100 g of body weight and the “relative average weight: Liver” value ([9]; 10 mg/kg) was 3036,5 mg/100 g of body weight. The “relative average weight: Loins” value ([9]; 10 mg/kg) was 672,8 ± 29,6 mg/100 g of body weight, the “relative average weight: Spleen” value ([9]; 10 mg/kg) was 303,7 ± 13,5 mg/100 g of body weight and the Azotemia ([9]; 10 mg/kg, 12 weeks) was 32,5 ± 1,6 mg/100 ml. The Glycemia ([9]; 10 mg/kg, 12 weeks) was 80,3 ± 4,1 mg/100 ml, the SGOT ([9]; 10 mg/kg, 12 weeks) was 12,3 ± 0,5 mU/ml and the SGPT ([9]; 10 mg/kg, 12 weeks) was 10,4 ± 0,7 mU/ml. For the same molecule, the deaths [9, 13] was “No death has been registered”, the “increase in the weight of the treated animals” value [9, 13] was “identical to that of the controls” and the “intolerance of the drug” value [9, 13] was “No intolerance of the drug has been noted”. For the same molecule, the autopsy ([9]; rat, 5 and 10 mg/kg, 12 weeks) was “no lesion of the different organs”, the “hematologic and hematochemical tests” value ([9]; rat, 5 and 10 mg/kg, 12 weeks, vs controls, in words) was “do not show significant difference between controls and treated animals” and the “acute toxicity compared with Dimefline” value [10] was “by far less toxic than Dimefline”. It also gave an LD50 [11] of 80 mg/kg, an LD50 ([11]; ip) of 28.2 mg/kg and an LD50 ([11]; po) of 80 mg/kg. The “R(LD50 /CD50)” value [12] was 1,38, the TD50 [3] was 58 mg/kg and the “stimulant action on the CNS indicated by the ratio LD50/CD50” value [4] was “equivalent for the two drugs”. For the same molecule, the “reduction of the toxicity of Pentobarbital” value ([5]; equi-toxic doses, vs Dimefline, in words) was “reduces the toxicity of Pentobarbital much more than Dimefline” and the “PR (ratio between the LD50 of Pentobarbital with and without pre-treatment with the stimulant)” value [5] was 1,39.
